US20070185215A1, “Pharmaceutical composition containing obovatol as an active ingredient for the prevention and treatment of neurodegenerative diseases” (priority 2006, published 2007)

How the values were obtained:
[1] = Solubility (physical and chemical properties); format: physicochemical
[2] = system: SD rats; assay: Acute oral toxicity assay in rats; format: in vivo
Procedure: Using six-week-old specific pathogen-free (SPF) SD rats, an acute toxicity assay was conducted. The rats were divided into groups of two rats. After being dissolved in injectable saline, the obovatol, obtained in Example 1, was orally administered once in a dosage of 1 g/kg/ml to the rat groups. Afterwards, observations were made of the death, clinical symptoms, and weight changes of the animals, and serological and serobiochemical assays were conducted. Also, an autopsy was carried out to examine abnormalities of the abdominal and thoracic organs with the naked eye.

[3] = system: BV-2 murine microglial cell line; assay: MTT assay for cytotoxicity; format: cell-based; conditions: concentrations as high as 30˜50 μg/ml
Procedure: (§1) The BV-2 murine microglial cell line, obtained from Prof. Eui-Ju, Choi, School of Life Sciences and Technology in Korea University, Korea, was treated with 100 ng/ml of LPS (lipopolysaccharide), known to activate microglial cells, in the presence of 1 μg/ml or 10 μg/ml obovatol for 24 hours, and then the nitric oxides secreted into the culture media were quantitatively analyzed using a Griess reaction method to determine the activity of the microglia. In detail, 50 μl of the microglial culture medium was reacted with 50 μl of the Griess reagent [1% sulfanilamide/0.1% naphthylethylene diamine dihydrochloride/2% phosphoric acid] at room temperature for 10 min, followed by measuring absorbance at 540 nm with the aid of a microplate reader (Anthos Labtec Instruments GmbH Salzburg, Austria). For comparison, magnolol, known to have a neuroprotective effect, was also tested in the same manner. Using NaNO2 as a standard material, inhibition rates of the test materials were calculated for the production of nitric oxides. Also, MTT assay was conducted to measure cytotoxicity in order to determine whether or not the inhibitory activity against microglial activity was attributed to cytotoxicity.

[4] = system: BV-2 murine microglial cell line; assay: Inhibition of nitric oxide production in LPS-activated microglia (Griess reaction); format: cell-based; conditions: BV-2 cells, 100 ng/ml LPS, 24 hours
Procedure: as §1

| Molecule | Solubility ([1]; Alcohol, DMSO) | Solubility ([1]; Hexane, water) | Noticeable clinical symptoms or death ([2]; SD rats, oral, once, 1 g/kg/ml) | Toxicity in weight change, serological assay, serobiochemical assay, autopsy observations ([2]; SD rats, oral, once, 1 g/kg/ml) | Dose causing no toxic effects ([2]; rat, in vivo, po) [mg/kg] | Cytotoxicity as measured by MTT assay [3] | Inhibition Rates (%) of Nitric Oxide Production ([4]; 1 μg/ml compound) [%] | Inhibition Rates (%) of Nitric Oxide Production ([4]; 10 μg/ml compound) [%] | inhibition at 1 µg/mL ([4]; Mus musculus, 1 μg/ml compound, read-out: Inhibition Rates (%) of Nitric Oxide Production) [%] | inhibition at 10 µg/mL ([4]; Mus musculus, 10 μg/ml compound, read-out: Inhibition Rates (%) of Nitric Oxide Production) [%] |
| --- | --- | --- | --- | --- | --- | --- | --- | --- | --- | --- |
| obovatol | Soluble | Insoluble | None of the animals | not observed | ≤ 500 | did not exhibit cytotoxicity | 29.8 | 83.3 | – | – |
| C=CCc1ccc(O)c(-c2cc(CC=C)ccc2O)c1 [Magnolol, magnolol, reference compound] | – | – | – | – | – | – | – | – | 13.1 | 59 |
